Measurements from patent US9290440B2, “Bicyclic compound” (TOA EIYO LTD., priority 2012, dated 2016).

Biological target: T1, human sGC α subunit and β subunit (Homo sapiens, UniProt Q02153)
T1 construct: expressed in transfected cells
T1 sequence (Q02153 1-619): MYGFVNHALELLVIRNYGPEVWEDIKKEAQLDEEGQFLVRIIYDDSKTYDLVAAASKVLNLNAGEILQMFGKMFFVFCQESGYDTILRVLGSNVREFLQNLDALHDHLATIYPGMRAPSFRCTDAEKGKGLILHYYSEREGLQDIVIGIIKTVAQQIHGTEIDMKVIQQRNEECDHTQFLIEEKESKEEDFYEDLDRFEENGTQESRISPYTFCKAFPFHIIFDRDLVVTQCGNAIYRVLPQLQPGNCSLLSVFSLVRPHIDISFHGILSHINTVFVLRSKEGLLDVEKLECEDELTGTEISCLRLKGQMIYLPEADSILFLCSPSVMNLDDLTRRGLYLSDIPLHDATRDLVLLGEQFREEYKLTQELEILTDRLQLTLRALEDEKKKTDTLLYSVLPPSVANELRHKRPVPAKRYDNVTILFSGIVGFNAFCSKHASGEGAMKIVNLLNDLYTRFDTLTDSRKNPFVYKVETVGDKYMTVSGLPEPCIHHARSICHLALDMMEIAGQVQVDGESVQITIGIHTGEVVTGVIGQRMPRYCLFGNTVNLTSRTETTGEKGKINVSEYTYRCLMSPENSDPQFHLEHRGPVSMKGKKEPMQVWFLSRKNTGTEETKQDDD
T1 sequence (Q02108 1-690 partner): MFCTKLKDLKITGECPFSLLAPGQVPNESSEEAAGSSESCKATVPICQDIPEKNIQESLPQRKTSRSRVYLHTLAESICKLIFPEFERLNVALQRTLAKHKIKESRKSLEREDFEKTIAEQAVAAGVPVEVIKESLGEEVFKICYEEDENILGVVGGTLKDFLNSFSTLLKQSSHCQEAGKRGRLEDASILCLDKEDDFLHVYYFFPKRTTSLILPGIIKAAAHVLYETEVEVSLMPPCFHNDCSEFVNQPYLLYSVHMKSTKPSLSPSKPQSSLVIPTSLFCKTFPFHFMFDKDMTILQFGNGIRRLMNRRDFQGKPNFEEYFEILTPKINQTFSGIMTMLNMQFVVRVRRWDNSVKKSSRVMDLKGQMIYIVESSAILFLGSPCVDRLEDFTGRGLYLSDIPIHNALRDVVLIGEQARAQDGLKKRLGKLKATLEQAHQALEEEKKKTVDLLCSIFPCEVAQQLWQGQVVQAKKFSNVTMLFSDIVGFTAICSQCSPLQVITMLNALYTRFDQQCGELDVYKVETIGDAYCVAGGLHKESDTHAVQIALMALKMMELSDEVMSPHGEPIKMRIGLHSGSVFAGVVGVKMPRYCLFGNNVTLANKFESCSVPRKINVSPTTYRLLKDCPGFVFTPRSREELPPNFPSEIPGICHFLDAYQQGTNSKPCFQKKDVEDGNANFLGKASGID
Experiment: Heme-independent property of sGC activating function (EC50 ratio, CHO-K1 cells expressing human sGC and mouse CNGA2)
Assay type: cell-based
Conditions: EC50 in the absence of ODQ divided by EC50 in the presence of ODQ, sGC activation
Method: For the assay, Chinese hamster ovary cells (CHO-K1 cells) in which human sGC α subunit and β subunit and mouse cyclic nucleotide gated channel (CNGA2) are stably expressed were used.
CHO-K1 cells in which human sGC and mouse CNGA2 are stably expressed were cultured at 37° C. in F-12 medium containing 10% (v/v) fetal bovine serum (FBS), penicillin (100 U/mL), streptomycin (100 μg/mL), G418 (250 μg/mL), and zeocin (250 μg/mL). The cells were suspended in the culture medium and seeded onto a 96-well plate, and then cultured at 37° C. for 24 hours. After washing with assay buffer 1 (140 mmol/L sodium chloride, 5 mmol/L potassium chloride, 0.5 mmol/L magnesium chloride, 0.01 mmol/L calcium chloride, 10 mmol/L glucose, 0.4 mmol/L magnesium sulfate, 10 mmol/L 4-(2-hydroxyethyl)piperazin-1-ylethane sulfonic acid, and 125 μmol/L sulfinpyrazone, pH 7.4), an indicator solution in which FURA2-AM as a fluorescent Ca^2+ indicator is dissolved at concentration of 5 μmol/L in assay buffer 1 was added followed by culture for 60 minutes at 37° C. The indicator solution was removed. After washing with assay buffer 1, the test compound solution was added and incubated for 10 minutes at room temperature. The plate was placed in a fluorometer (Flex Station II, Molecular Devices, LLC), and then the intracellular calcium concentration was measured as fluorescence intensity ratio which is obtained from each excitation wavelength (excitation wavelength of 340 nm and 380 nm and detection wavelength of 510 nm).
The test compound solution was prepared by dissolving each of the test compounds in DMSO to a concentration of 10 mmol/L, and then adding the assay buffer 2 (140 mmol/L sodium chloride, 5 mmol/L potassium chloride, 0.5 mmol/L magnesium chloride, 1 mmol/L calcium chloride, 10 mmol/L glucose, 0.4 mmol/L magnesium sulfate, 10 mmol/L 4-(2-hydroxyethyl)piperazin-1-ylethane sulfonic acid, 125 μmol/L sulfinpyrazone, 100 μmol/L isobutylmethylxanthine, 10 μmol/L 1H-[1,2,4]-oxadiazole[4,3-a]quinoxalin-1-one (hereinbelow, ODQ), pH 7.4) for dilution to have test concentration of 10 μmol/L. For the evaluation of a case in which ODQ is not contained, the same evaluation was performed except that ODQ is excluded from assay buffer 2. As a control solution, a DMSO solution was used instead of the test compound solution.
The activity of the test compound corresponds to the increase ratio (%) of the sGC activity at the time of adding the test compound solution with respect to the sGC activity at the time of adding the control solution, and it was calculated by dividing the fluorescence intensity ratio at the time of adding the test compound by the fluorescence intensity ratio of the control solution and subtracting the sGC activity (100%) at the time of adding the control solution.
For the representative compounds, activity was measured in the same manner as Test Example 1 at each test concentration of 0.0001, 0.001, 0.003, 0.01, 0.03, 0.1, 1, and 10 μmol/L.
The degree of heme-independent property of each test compound with regard to sGC activating function was obtained by dividing, for EC50 measured from the concentration-activation curve which has been established from the above, EC50 in the absence of ODQ by EC50 in the presence of ODQ. Specifically, the smaller the EC50 ratio is, the less the change in sGC activating function is, the change in the function being caused by the presence or absence of ODQ, and thus it is found to be more heme-independent.
EC50 value was obtained by measuring the activity of each compound to be tested at concentrations of 0.0001, 0.001, 0.003, 0.01, 0.03, 0.1, 1, and 10 μmol/L and performing the calculation using four-parameter logistics model using Assay Explorer (Accelrys).

Row | Compound | EC50 Ratio (ODQ−/ODQ+)
1 | O=C(O)CCCCN(CCc1ccccc1OCc1ccc(CCc2ccccc2)cc1)Cc1ccc(C(=O)O)cc1 [Cinaciguat, reference compound] | 3.08
2 | O=C(O)CCCCN(CCc1ccccc1OCc1ccc(SCc2ccccc2)cc1)C1CCCc2cc(C(=O)O)ccc21 (stereo not drawn) [Example 15, 5-{N-[2-[2-(4-Benzylsulfanylbenzyloxyl)phenyl]ethyl]-N-(4-carboxybutyl)amino}-5,6,7,8-tetrahydronaphthalene-2-carboxylic acid] | 1.40
3 | O=C(O)CCCCN(CCc1ccccc1OCc1cccc2c1CCCC2)C1CCCc2cc(C(=O)O)ccc21 (stereo not drawn) [Example 29, 5-{N-(4-Carboxybutyl)-N-[2-[2-(5,6,7,8-tetrahydronaphthalene-1-ylmethoxy)phenyl]ethyl]amino}-5,6,7,8-tetrahydronaphthalene-2-carboxylic acid] | 1.71
